Measurements from patent publication US20190307749A1, “Mitochondria-Division Inhibitor 1 Protects Against Amyloid-B Induced Mitochondrial Fragmentation and Synaptic Damage in Alzheimer's Disease” (Texas Tech University System, priority 2018, published 2019).
Entries after “also recorded” stand apart in the source; their conditions may differ.

Tests used:
[1] = system: mouse neuroblastoma (N2a) cells; test: Immunoblotting analysis of mitochondrial dynamics, biogenesis and synaptic proteins; format: cell-based
Procedure: (§1) Tissue culture: The N2a cells were grown for 3 days in a serum-free medium (1:1 mixture of DMEM and OptiMEM, plus penicillin and streptomycin [Invitrogen, Carlsbad, Calif., USA]) until the cells developed neuronal processes.
[…] of protein was resolved from each group of cells on a 4-12% Nu-PAGE gel (Invitrogen). The resolved proteins were transferred to […] (Novax Inc., San Diego, Calif., USA) and were then incubated for 1 hour at room temperature with a blocking buffer (5% dry milk dissolved in a TBST buffer). The PVDF membranes were incubated overnight with primary antibodies (see Table 2) and washed 3 times with a TBST buffer at 10-minute intervals. They were then incubated for 2 hours with appropriate secondary antibodies, followed by 3 additional washes at 10-minute intervals. Mitochondrial and synaptic proteins were detected with cheminilumniscence reagents (Pierce Biotechnology, Rockford, Ill., USA), and the bands from immunoblots were quantified on a Kodak scanner, following manufacturer's instructions (ID Image Analysis Software, Kodak Digital Science, Kennesaw, Ga., USA), and the gel images were analyzed from gel images captured with a Kodak digital science CD camera. The lanes were marked to define the positions and specific regions of the bands. An ID fine-band command was used to locate and to scan the bands in each lane and to record the readings.

N2a cells [2] = test: Cytochrome c oxidase activity; format: cell-based, mouse
Procedure: as §1
Cytochrome c oxidase activity: Cytochrome oxidase activity was measured in each of the 5 groups of N2a cells. Enzyme activity was assayed spectrophotometrically using a Sigma Kit (Sigma-Aldrich) following manufacturer's instructions. […] The decrease in absorbance at […] was recorded for 1-min reactions at 10-sec intervals. Cytochrome oxidase activity was measured according to the following formula: mU/mg total mitochondrial protein=(A/min sample−(A/min blank)×1.1 mg protein×21.84). The protein concentrations were determined following the BCA method.

N2a cells [3] = test: H2O2 production (Amplex Red H2O2 assay); format: cell-based, mouse
Procedure: as §1
Mitochondrial functional assays. H2O2 production: Using an Amplex® Red H2O2 assay kit (Molecular Probes, Eugene, Oreg., USA), H2O2 production was measured using cell pellets, as described in Manczak and Reddy. Briefly, H2O2 production was measured in the protein lysates prepared from cell pellets of control untreated N2a cells and 4 treatment groups (FIG. 1). A BCA protein assay kit (Pierce Biotechnology) was used to estimate protein concentration. The reaction mixture contained mitochondrial proteins (μg/μl), Amplex Red reagents (50 μM), horseradish peroxidase (0.1 U/ml), and a reaction buffer (1×). The mixture was incubated at room temperature for 30 minutes, followed by spectrophotometer readings of fluorescence (570 nm). Finally, H2O2 production was determined, using a standard curve equation expressed in nmol/μg mitochondrial protein.

GTPase Drp1 = details: by blocking the self-assembly of Drp1; reference [34]; cited from earlier work
N2a cells [4] = test: Soluble Aβ42 levels by sandwich ELISA; format: cell-based, mouse; details: vs N2a cells treated only with Aβ42
Procedure: as §1
Briefly, protein lysates from untreated control N2a cells and lysates from 4 treatment groups were homogenized in a Tris-buffered saline (pH 8.0) containing protease inhibitors ([…] pepstatin A, aprotinin, phophsoramidon, and leupeptin; 0.5 mM phenylmethanesulfonyl fluoride and 1 mM ethyleneglycol-bis(flaminoethyl ether)-NN tetraacetic acid). Samples were sonicated briefly and centrifuged at 10,000 g for 20 min at 4° C. The soluble fraction was used to determine the soluble Aβ by ELISA. For each sample, Aβ1-40 and Aβ1-42 were measured with commercial colorimetric ELISA kits (Biosource International, Camarillo, Calif., USA) that were specific for each species. A 96-well plate reader was used, following the manufacturer's instructions. Each sample was run in duplicate. Protein concentrations of the homogenates were determined following the […], and Aβ was expressed as pg Aβ/mg protein.

[5] = Aβ42 6 hrs then Mdivi1 24 hrs (Aβ42+Mdivi1), vs Aβ42 treated cells
[6] = Aβ42 6 hrs then Mdivi1 24 hrs (Aβ42+Mdivi1), vs untreated N2a cells
[7] = Mdivi1 24 hrs or Aβ42 20 μM 6 hrs alone, vs untreated N2a cells
[8] = Mdivi1 24 hrs then Aβ42 6 hrs (Mdivi1+Aβ42), vs Aβ42 treated cells
[9] = Mdivi1 24 hrs then Aβ42 6 hrs (Mdivi1+Aβ42), vs untreated N2a cells

SMILES: COc1cc(-n2c(S)nc3ccccc3c2=O)c(Cl)cc1Cl [Mdivi1, 3-(2,4-Dichloro-5-methoxyphenyl)-2,3-dihydro-2-thioxo-4(1H)-quinazolinone]
- Drp1 protein level [1, 5]: significantly lower
- Fis1 protein level [1, 5]: significantly lower
- Mfn1 protein level [1, 5]: significantly higher
- Mfn2 protein level [1, 5]: significantly higher
- Nrf1 protein level [1, 5]: significantly higher
- Opa1 protein level [1, 5]: significantly higher
- PGC1α protein level [1, 5]: significantly higher
- PSD95 protein level [1, 5]: significantly higher
- Synaptophysin protein level [1, 5]: significantly higher
- TFAM protein level [1, 5]: significantly higher
- Drp1 protein level [1, 6]: Unchanged
- Fis1 protein level [1, 6]: Unchanged
- Drp1 protein level [1, 7]: significantly lower
- Fis1 protein level [1, 7]: significantly lower
- Mfn1 protein level [1, 7]: significantly higher
- Mfn2 protein level [1, 7]: significantly higher
- Nrf2 protein level [1, 7]: significantly higher
- Opa1 protein level [1, 7]: significantly higher
- PGC1α protein level [1, 7]: significantly higher
- TFAM protein level [1, 7]: significantly higher
- Drp1 protein level [1, 8]: significantly lower
- Fis1 protein level [1, 8]: significantly lower
- Mfn1 protein level [1, 8]: significantly higher
- Mfn2 protein level [1, 8]: significantly higher
- Nrf1 protein level [1, 8]: significantly higher
- Nrf2 protein level [1, 8]: significantly higher
- Opa1 protein level [1, 8]: significantly higher
- PGC1α protein level [1, 8]: significantly higher
- PSD95 protein level [1, 8]: significantly higher
- Synaptophysin protein level [1, 8]: significantly higher
- TFAM protein level [1, 8]: significantly higher
- Drp1 protein level [1, 9]: unchanged
- Fis1 protein level [1, 9]: unchanged
- Cytochrome oxidase activity (N2a cells [2]; Aβ42 6 hrs then Mdivi1 24 hrs (Aβ42+Mdivi1), vs cells treated with Aβ42 alone): significantly increased
- Cytochrome oxidase activity (N2a cells [2]; [6]): increased levels
- Cytochrome oxidase activity (N2a cells [2]; [7]): increased levels
- Cytochrome oxidase activity (N2a cells [2]; Mdivi1 24 hrs then Aβ42 6 hrs (Mdivi1+Aβ42), vs cells treated with Aβ42 alone): significantly increased
- Cytochrome oxidase activity (N2a cells [2]; [9]): increased levels
- H2O2 levels (N2a cells [3]; Aβ42 6 hrs then Mdivi1 24 hrs (Aβ42+Mdivi1), vs N2a+Aβ42 cells): significantly lower
- H2O2 levels (N2a cells [3]; [6]): unchanged
- H2O2 levels (N2a cells [3]; Mdivi1 24 hrs then Aβ42 6 hrs (Mdivi1+Aβ42), vs N2a+Aβ42 cells): significantly lower
- H2O2 levels (N2a cells [3]; [9]): unchanged
- GTPase Drp1 activity (GTPase Drp1): inhibits
- Aβ42 levels (N2a cells [4]; Aβ42 6 hrs then Mdivi1 24 hrs (Aβ42+Mdivi1, curative)): Significantly reduced; also recorded: significantly lower
- Aβ42 levels (N2a cells [4]; Mdivi1 24 hrs then Aβ42 6 hrs (Mdivi1+Aβ42, preventive)): Significantly reduced; also recorded: significantly lower
